According to US20180339963A1, “ANTICONVULSANT CARBAMATE DERIVATIVES” (Yissum Research Development Company of the Hebrew …, priority 2017, published 2018):
Read-outs that look alike come from different tables or passages of the source. Marks after values point to notes of the source that are not given here.

What was measured:
SWV mice = assay: Teratogenicity in the SWV mouse model; format: in vivo; conditions: for No. of fetuses with NTDs / No. of implants / No. of live fetuses / No. of resorptions / Fetal weight mean ± SD: day 8.5 of gestation; for Fetal weight mean ± SD: in g (unit assumed); for No. of live fetuses, figure in parentheses / No. of resorptions, figure in parentheses: share of implants; for No. of fetuses with NTDs, figure in parentheses: share of live fetuses
Procedure: The teratogenic properties of the newly designed compounds (1-10) were evaluated in the highly inbred SWV mice strain known for its high susceptibility to VPA-induced neural tube defects (NTDs). Two month old nulligravid females, were mated overnight with males and examined for the presence of vaginal plugs the following morning, and the onset of gestation was considered to be 10 p.m. of the previous night, the midpoint of the dark cycle. At day 8.5 of gestation, each dam received a single i.p. injection of the test compounds in an equimolar dose of 0.9 or 1.8 mmol/kg and the control dams were injected with vehicle (25% water solution of Cremophore EL, Fluka Biochemica Germany). The volume of injection was 10 μL/g of body weight. […] At gestation day […], the dams were euthanized by carbon dioxide asphyxiation followed by cervical dislocation. After the opening the uterus, the location of all viable fetuses and resorption sites were recorded, and the fetuses were examined for the presence of exencephaly or other gross congenital abnormalities. The teratogenicity data (implantations, resorptions and NTDs) were evaluated for significant differences between the control and treated groups by analyzing the contingency table with Fisher's exact test. Statistical analysis was conducted using GraphPad InStat (version 3.06; GraphPad Software, San Diego, Calif., USA), and the results of all tests were considered to be statistically significant when the p-value was less than 0.05

hCA I = target: T1, hCA I (Homo sapiens, UniProt P00915); assay: Stopped flow CO2 hydrase assay, hCA I; format: biochemical; conditions: mean from 3 assays, read-out: K1, hCAI
T1 construct: made in house
T1 sequence (P00915 whole entry): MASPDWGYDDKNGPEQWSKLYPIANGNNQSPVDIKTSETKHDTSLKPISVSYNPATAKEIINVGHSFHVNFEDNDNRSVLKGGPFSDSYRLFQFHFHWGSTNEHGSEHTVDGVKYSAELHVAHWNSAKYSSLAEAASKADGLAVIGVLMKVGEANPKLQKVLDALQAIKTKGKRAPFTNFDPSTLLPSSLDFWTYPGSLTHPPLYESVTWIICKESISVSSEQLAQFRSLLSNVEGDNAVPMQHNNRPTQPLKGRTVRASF
Procedure: (§1) An Applied Photophysics stopped-flow instrument has been used for assaying the CA catalysed CO2 hydration activity. Phenol red (at a concentration of 0.2 mM) has been used as indicator, working at the absorbance maximum of 557 nm, with 20 mM Hepes (pH 7.5) as buffer, and 20 mM Na2SO4 (for maintaining constant the ionic strength), following the initial rates of the CA-catalyzed CO2 hydration reaction for a period of 10-100 s. The CO2 concentrations ranged from 1.7 to 17 mM for the determination of the kinetic parameters and inhibition constants. […] The uncatalyzed rates were determined in the same manner and subtracted from the total observed rates. Stock solutions of inhibitor (0.1 mM) were prepared in distilled-deionized water and dilutions up to 0.01 nM were done thereafter with the assay buffer. […] The inhibition constants were obtained by non-linear least-squares methods using PRISM 3 and the Cheng-Prusoff equation, as reported earlier and represent the mean from at least three different determinations. All CA isofoms were recombinant ones obtained in-house.

hCA II = target: T2, hCA II (Homo sapiens, UniProt P00918); assay: Stopped flow CO2 hydrase assay, hCA II; format: biochemical; conditions: mean from 3 assays, read-out: K1, hCA II
T2 construct: made in house
Procedure: as §1

hCA IV = target: T3, hCA IV (Homo sapiens, UniProt P22748); assay: Stopped flow CO2 hydrase assay, hCA IV; format: biochemical; conditions: mean from 3 assays; for Ki: read-out: K1, hCA IV
T3 construct: made in house
T3 sequence (P22748 19-284): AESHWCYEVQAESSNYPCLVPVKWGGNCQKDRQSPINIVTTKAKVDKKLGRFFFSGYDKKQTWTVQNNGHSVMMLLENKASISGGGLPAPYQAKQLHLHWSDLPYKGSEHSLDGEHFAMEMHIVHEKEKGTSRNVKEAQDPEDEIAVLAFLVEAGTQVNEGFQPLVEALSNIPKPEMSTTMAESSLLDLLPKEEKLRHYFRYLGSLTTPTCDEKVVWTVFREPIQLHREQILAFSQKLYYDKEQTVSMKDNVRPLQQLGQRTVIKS
Procedure: as §1

hCA VII = target: T4, hCA VII (Homo sapiens, UniProt P43166); assay: Stopped flow CO2 hydrase assay, hCA VII; format: biochemical; conditions: mean from 3 assays, read-out: K1, hCA VII
T4 construct: made in house
T4 sequence (P43166 whole entry): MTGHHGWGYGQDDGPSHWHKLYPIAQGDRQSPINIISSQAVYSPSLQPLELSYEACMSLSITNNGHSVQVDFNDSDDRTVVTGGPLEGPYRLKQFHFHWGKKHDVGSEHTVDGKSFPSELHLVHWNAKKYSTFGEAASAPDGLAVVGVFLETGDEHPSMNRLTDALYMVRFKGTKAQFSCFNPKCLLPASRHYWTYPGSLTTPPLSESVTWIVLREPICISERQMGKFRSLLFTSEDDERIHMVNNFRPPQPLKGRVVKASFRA
Procedure: as §1

in vivo = conditions: male, CF no. 1 albino, mouse, ip
6 Hz psychomotor seizure = 6 Hz psychomotor seizure test in mice; conditions: for responders at 30 mg/kg / responders at 100 mg/kg / responders at 300 mg/kg: read-out: 6 Hz, number of mice protected/number of mice tested
[1] = system: maximal electroshock seizure (MES); assay: Maximal electroshock seizure (MES) test in mice; conditions: for responders at 30 mg/kg / responders at 100 mg/kg / responders at 300 mg/kg / ED50: Mus musculus, ip; for responders at 30 mg/kg / responders at 100 mg/kg / responders at 300 mg/kg: read-out: MES, number of mice protected/number of mice tested; for ED50: read-out: MES-ED50, mice, i.p.
[2] = system: maximal electroshock seizure (MES); assay: Maximal electroshock seizure (MES) test in rats; conditions: Rattus norvegicus, po, read-out: MES-ED50, rats, p.o.
[3] = system: pentylenetetrazol-induced seizure (scMet); assay: Subcutaneous metrazol seizure test (scMet) in mice; conditions: Mus musculus, ip, read-out: scMet-ED50
[4] = system: pentylenetetrazol-induced seizure (scMet); assay: Subcutaneous metrazol seizure test (scMet) in rats; conditions: rats, p.o.
mice = assay: Neurotoxicity (minimal motor impairment, rotarod) in mice; conditions: mice i.p.

Q: For CCCC(COC(=O)Nc1ccc(S(N)(=O)=O)cc1)C(C)CC (stereo not drawn) [Compound 1, 3-methyl-2-propylpentyl (4-sulfamoylphenyl)carbamate], which “induction of neural tube defects relative to anticonvulsant effective dose (in words)” value (SWV mice) is on record?
A: induced neural tube defects only at doses markedly exceeding their effective dose

Q: And the “No. of fetuses with NTDs” value (SWV mice; single i.p. 0.9 mmol/kg)?
A: 1

Q: And the No. of implants (SWV mice; single i.p. 0.9 mmol/kg)?
A: 126

Q: What about the “No. of live fetuses” value (SWV mice; single i.p. 0.9 mmol/kg) of the same compound?
A: 94

Q: What about the No. of resorptions (SWV mice; single i.p. 0.9 mmol/kg) of the same compound?
A: 32

Q: What about the “Fetal weight mean ± SD” value (SWV mice; single i.p. 0.9 mmol/kg) of the same compound?
A: 0.88 ± 0.03

Q: And the No. of live fetuses, figure in parentheses (SWV mice; single i.p. 0.9 mmol/kg)?
A: 74.6%

Q: What about the No. of resorptions, figure in parentheses (SWV mice; single i.p. 0.9 mmol/kg) of the same compound?
A: 25.4%

Q: What about the “No. of fetuses with NTDs, figure in parentheses” value (SWV mice; single i.p. 0.9 mmol/kg) of the same compound?
A: (1.1)

Q: And the “No. of fetuses with NTDs” value (SWV mice; single i.p. 1.8 mmol/kg)?
A: 7

Q: And the No. of implants (SWV mice; single i.p. 1.8 mmol/kg)?
A: 109

Q: And the “No. of live fetuses” value (SWV mice; single i.p. 1.8 mmol/kg)?
A: 50

Q: And the No. of resorptions (SWV mice; single i.p. 1.8 mmol/kg)?
A: 59

Q: And the “Fetal weight mean ± SD” value (SWV mice; single i.p. 1.8 mmol/kg)?
A: 0.88 ± 0.06

Q: What about the No. of live fetuses, figure in parentheses (SWV mice; single i.p. 1.8 mmol/kg) of the same compound?
A: 45.9%

Q: What about the No. of resorptions, figure in parentheses (SWV mice; single i.p. 1.8 mmol/kg) of the same compound?
A: 54.1%

Q: And the “No. of fetuses with NTDs, figure in parentheses” value (SWV mice; single i.p. 1.8 mmol/kg)?
A: (14.0)*

Q: What about the Ki (hCA I) of the same compound?
A: 0.089 µM

Q: What about the Ki (hCA II) of the same compound?
A: 0.0057 µM

Q: And the Ki (hCA IV)?
A: > 10 µM

Q: And the Ki (hCA VII)?
A: 0.865 µM

Q: What about the melting point of the same compound?
A: 151 to 152 °C

Q: And the TD50 (in vivo)?
A: > 500 mg/kg

Q: And the responders at 30 mg/kg (6 Hz psychomotor seizure; Mus musculus, ip, 0.5 h)?
A: 25%

Q: What about the responders at 100 mg/kg (6 Hz psychomotor seizure; Mus musculus, ip, 0.5 h) of the same compound?
A: 25%

Q: And the responders at 300 mg/kg (6 Hz psychomotor seizure; Mus musculus, ip, 0.5 h)?
A: 0%

Q: And the responders at 30 mg/kg (6 Hz psychomotor seizure; Mus musculus, ip, 2 h)?
A: 0%

Q: What about the responders at 100 mg/kg (6 Hz psychomotor seizure; Mus musculus, ip, 2 h) of the same compound?
A: 25%

Q: And the responders at 300 mg/kg (6 Hz psychomotor seizure; Mus musculus, ip, 2 h)?
A: 75%

Q: And the ED50 (6 Hz psychomotor seizure; Mus musculus, ip, read-out: 6 Hz-ED50, mice, i.p., 32 mA)?
A: 75 mg/kg

Q: What about the “6 Hz-ED50” value (6 Hz psychomotor seizure; mice, i.p., 32 mA) of the same compound?
A: 74 mg/kg

Q: What about the responders at 30 mg/kg ([1]; 0.5 h) of the same compound?
A: 0%

Q: And the responders at 100 mg/kg ([1]; 0.5 h)?
A: 0%

Q: What about the responders at 300 mg/kg ([1]; 0.5 h) of the same compound?
A: 0%

Q: What about the responders at 30 mg/kg ([1]; 2 h) of the same compound?
A: 0%

Q: What about the responders at 100 mg/kg ([1]; 2 h) of the same compound?
A: 75%

Q: What about the responders at 300 mg/kg ([1]; 2 h) of the same compound?
A: 100%

Q: What about the ED50 [1] of the same compound?
A: 136 mg/kg

Q: What about the MES-ED50 ([1]; mice, i.p.) of the same compound?
A: 236 mg/kg

Q: And the ED50 [2]?
A: 36 mg/kg

Q: And the ED50 [3]?
A: > 300 mg/kg

Q: What about the “scMet ED50” value [4] of the same compound?
A: inactive

Q: And the “Tox (motor impairment or sedation), number of animals affected/number of animals tested” value (mice; 30 mg/kg, 0.5 h)?
A: 0/8

Q: And the “Tox (motor impairment or sedation), number of animals affected/number of animals tested” value (mice; 30 mg/kg, 2.0 h)?
A: 0/8

Q: And the “Tox (motor impairment or sedation), number of animals affected/number of animals tested” value (mice; 100 mg/kg, 0.5 h)?
A: 0/8

Q: What about the “Tox (motor impairment or sedation), number of animals affected/number of animals tested” value (mice; 100 mg/kg, 2.0 h) of the same compound?
A: 0/8

Q: And the “Tox (motor impairment or sedation), number of animals affected/number of animals tested” value (mice; 300 mg/kg, 0.5 h)?
A: 0/8

Q: What about the “Tox (motor impairment or sedation), number of animals affected/number of animals tested” value (mice; 300 mg/kg, 2.0 h) of the same compound?
A: 0/8

Q: For CC(C)C(OC(=O)Nc1ccc(S(N)(=O)=O)cc1)C(C)C [Compound 8, 2,4-dimethylpentan-3-yl (4-sulfamoylphenyl)carbamate], which Ki (hCA I) is on record?
A: 0.021 µM

Q: What about the Ki (hCA II) of the same compound?
A: 0.0037 µM

Q: What about the “K1, hCA IV” value (hCA IV) of the same compound?
A: medium potency inhibitors

Q: And the Ki (hCA IV)?
A: 0.452 µM

Q: And the Ki (hCA VII)?
A: 0.0354 µM

Q: What about the melting point of the same compound?
A: 193 to 194 °C

Q: What about the responders at 30 mg/kg (6 Hz psychomotor seizure; Mus musculus, ip, 0.5 h) of the same compound?
A: 0%

Q: And the responders at 100 mg/kg (6 Hz psychomotor seizure; Mus musculus, ip, 0.5 h)?
A: 0%

Q: And the responders at 300 mg/kg (6 Hz psychomotor seizure; Mus musculus, ip, 0.5 h)?
A: 50%

Q: And the responders at 30 mg/kg (6 Hz psychomotor seizure; Mus musculus, ip, 2 h)?
A: 0%

Q: And the responders at 100 mg/kg (6 Hz psychomotor seizure; Mus musculus, ip, 2 h)?
A: 0%

Q: And the responders at 300 mg/kg (6 Hz psychomotor seizure; Mus musculus, ip, 2 h)?
A: 25%

Q: And the responders at 30 mg/kg ([1]; 0.5 h)?
A: 0%

Q: And the responders at 100 mg/kg ([1]; 0.5 h)?
A: 0%

Q: And the responders at 300 mg/kg ([1]; 0.5 h)?
A: 25%

Q: What about the responders at 30 mg/kg ([1]; 2 h) of the same compound?
A: 50%

Q: What about the responders at 100 mg/kg ([1]; 2 h) of the same compound?
A: 100%

Q: And the responders at 300 mg/kg ([1]; 2 h)?
A: 100%

Q: What about the “Tox (motor impairment or sedation), number of animals affected/number of animals tested” value (mice; 30 mg/kg, 0.5 h) of the same compound?
A: 0/8

Q: And the “Tox (motor impairment or sedation), number of animals affected/number of animals tested” value (mice; 30 mg/kg, 2.0 h)?
A: 0/8

Q: What about the “Tox (motor impairment or sedation), number of animals affected/number of animals tested” value (mice; 100 mg/kg, 0.5 h) of the same compound?
A: 0/8

Q: What about the “Tox (motor impairment or sedation), number of animals affected/number of animals tested” value (mice; 100 mg/kg, 2.0 h) of the same compound?
A: 0/8

Q: And the “Tox (motor impairment or sedation), number of animals affected/number of animals tested” value (mice; 300 mg/kg, 0.5 h)?
A: 1/8

Q: And the “Tox (motor impairment or sedation), number of animals affected/number of animals tested” value (mice; 300 mg/kg, 2.0 h)?
A: 0/8

Q: Which melting point does the source give for CCC(C)OC(=O)Nc1ccc(S(N)(=O)=O)cc1 (stereo not drawn) [Compound 11, sec-butyl(4-sulfamoylphenyl)carbamate] here?
A: 190 to 191 °C

Q: What about the ED50 [1] of the same compound?
A: 75 mg/kg

Q: What about the ED50 [2] of the same compound?
A: 25 mg/kg
